Experimental data taken from the supplement of paper PMC11061612.

How the values were obtained:
Assay in all cases: combination Emax (second highest fraction inhibited in the dose matrix, 72 h); higher = more inhibition; extreme values may be limits of the assay
[1] = test system: SNG-M (Endometrial Carcinoma)
Method in brief: (§1)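 Cell lines grown in DMEM/F12 or RPMI with 10% FBS were plated in 1536-well plates and held 24 hours at 37°C, 5% CO2 before 72 hours of exposure to two-drug dose matrices, with DMSO typically at 0.2%. CellTiter-Glo 2.0 luminescence gave viability, which was converted to inhibition. Vehicle wells were set to 0 and blank wells to 1. Combination Emax is the second-highest inhibition in the matrix, and Bliss excess is the observed combination effect minus the expected EA + EB − EA·EB, where EA and EB are the single-agent effects.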

[2] = test system: TC-YIK (Other Solid Carcinomas)
Method in brief: as §1

[3] = test system: WSU-DLCL2 (B-Cell Non-Hodgkin's Lymphoma)
Method in brief: as §1

[4] = test system: NOMO-1 (Acute Myeloid Leukemia)
Method in brief: as §1

[5] = test system: SW48 (Colorectal Carcinoma)
Method in brief: as §1

[6] = test system: SK-LMS-1 (Other Solid Carcinomas)
Method in brief: as §1

[7] = test system: SLVL (B-Cell Non-Hodgkin's Lymphoma)
Method in brief: as §1

SK-MEL-1 (Melanoma) = test system: SK-MEL-1 (Melanoma)
Method in brief: as §1

[8] = test system: D-283MED (Other Solid Carcinomas)
Method in brief: as §1

[9] = test system: SW948 (Colorectal Carcinoma)
Method in brief: as §1

[10] = test system: BICR78 (Oral Cavity Carcinoma)
Method in brief: as §1

MSTO-211H (Mesothelioma) = test system: MSTO-211H (Mesothelioma)
Method in brief: as §1

[11] = test system: DOK (Oral Cavity Carcinoma)
Method in brief: as §1

[12] = test system: P31-FUJ (Acute Myeloid Leukemia)
Method in brief: as §1

[13] = test system: HCT-116 (Colorectal Carcinoma)
Method in brief: as §1

[14] = test system: FU-OV-1 (Ovarian Carcinoma)
Method in brief: as §1

[15] = test system: HLE (Hepatocellular Carcinoma)
Method in brief: as §1

Saos-2 (Osteosarcoma) = test system: Saos-2 (Osteosarcoma)
Method in brief: as §1

D-392MG (Glioblastoma) = test system: D-392MG (Glioblastoma)
Method in brief: as §1

[16] = test system: MEG-01 (Chronic Myelogenous Leukemia)
Method in brief: as §1

Row | SMILES | combination Emax [1] | combination Emax [2] | combination Emax [3] | combination Emax [4] | combination Emax [5] | combination Emax [6] | combination Emax [7] | combination Emax (SK-MEL-1 (Melanoma)) | combination Emax [8] | combination Emax [9] | combination Emax [10] | combination Emax (MSTO-211H (Mesothelioma)) | combination Emax [11] | combination Emax [12] | combination Emax [13] | combination Emax [14] | combination Emax [15] | combination Emax (Saos-2 (Osteosarcoma)) | combination Emax (D-392MG (Glioblastoma)) | combination Emax [16]
1 | CN(CCO)CC[C@H](CSc1ccccc1)Nc1ccc(S(=O)(=O)NC(=O)c2ccc(N3CCC([C@@H](O)c4ccccc4-c4ccc(Cl)cc4)CC3)cc2)cc1S(=O)(=O)C(F)(F)F [AZD4320] + CS(=O)(=O)CCNCc1ccc(-c2ccc3ncnc(Nc4ccc(OCc5cccc(F)c5)c(Cl)c4)c3c2)o1 [Lapatinib] (first compound max 1 µM, 7x7, partner max 10 µM) | 0.92 | 1 | 0.967 | 0.709 | 0.969 | 0.817 | 0.98 | 0.808 | 0.988 | 0.96 | 0.456 | 0.952 | 0.982 | 0.959 | 0.796 | 0.59 | 0.945 | 0.746 | 0.492 | 0.986
2 | CN(CCO)CC[C@H](CSc1ccccc1)Nc1ccc(S(=O)(=O)NC(=O)c2ccc(N3CCC([C@@H](O)c4ccccc4-c4ccc(Cl)cc4)CC3)cc2)cc1S(=O)(=O)C(F)(F)F [AZD4320] + Nc1ccn([C@@H]2O[C@H](CO)[C@@H](O)C2(F)F)c(=O)n1 [Gemcitabine] (first compound max 1 µM, 7x7, partner max 0.3 µM) | 0.913 | 1 | 1 | 0.987 | 0.972 | 0.984 | 1 | 0.649 | 1 | 0.524 | 0.63 | 0.96 | 0.859 | 0.959 | 0.899 | 0.245 | 0.887 | 0.984 | 0.96 | 0.93
3 | C[C@@H]1COCCN1c1cc(C2([S@](C)(=N)=O)CC2)nc(-c2ccnc3[nH]ccc23)n1 [AZD6738] + Nc1ccn([C@@H]2O[C@H](CO)[C@@H](O)C2(F)F)c(=O)n1 [Gemcitabine] (first compound max 10 µM, 7x7, partner max 0.3 µM) | 0.934 | 0.893 | 1 | 1 | 0.818 | 0.858 | 0.955 | 0.528 | 1 | 0.873 | 0.79 | 0.855 | 0.782 | 1 | 0.947 | 0.67 | 0.834 | 0.83 | 0.625 | 0.945
4 | CC1(C)CCC(CN2CCN(c3ccc(C(=O)NS(=O)(=O)c4ccc(NCC5CCOCC5)c([N+](=O)[O-])c4)c(Oc4cnc5[nH]ccc5c4)c3)CC2)=C(c2ccc(Cl)cc2)C1 [Venetoclax] + CS(=O)(=O)CCNCc1ccc(-c2ccc3ncnc(Nc4ccc(OCc5cccc(F)c5)c(Cl)c4)c3c2)o1 [Lapatinib] (first compound max 1 µM, 7x7, partner max 10 µM) | 0.247 | 0.294 | 0.798 | 0.319 | 0.391 | 0.212 | 0.26 | 0.327 | 0.927 | 0.352 | 0.364 | 0.299 | 0.645 | 0.581 | 0.391 | 0.324 | 0.137 | 0.214 | 0.0713 | 0.485
5 | O=C(c1cc(Cc2n[nH]c(=O)c3ccccc23)ccc1F)N1CCN(C(=O)C2CC2)CC1 [Olaparib] + CC1(C)CCC(CN2CCN(c3ccc(C(=O)NS(=O)(=O)c4ccc(NCC5CCOCC5)c([N+](=O)[O-])c4)c(Oc4cnc5[nH]ccc5c4)c3)CC2)=C(c2ccc(Cl)cc2)C1 [Venetoclax] (first compound max 10 µM, 7x7, partner max 1 µM) | 0.179 | 0.403 | 0.452 | 0.383 | 0.175 | 0.183 | 0.7 | 0.151 | 0.666 | 0.122 | 0.108 | 0.0774 | 0.108 | 0.166 | 0.384 | 0.199 | 0.0962 | 0.249 | 0.114 | 0.109
6 | Cc1c2c(nn1C)CSCc1cc(n(C)n1)CSc1cc(c3ccccc3c1)OCCCc1c(C(=O)O)n(C)c3c-2c(Cl)ccc13 [AZD5991] + CC(=O)O[C@H]1C(=O)[C@@]2(C)[C@H]([C@H](OC(=O)c3ccccc3)[C@]3(O)C[C@H](OC(=O)[C@H](O)[C@@H](NC(=O)c4ccccc4)c4ccccc4)C(C)=C1C3(C)C)[C@]1(OC(C)=O)CO[C@@H]1C[C@@H]2O [Paclitaxel] (first compound max 1 µM, 7x7, partner max 3 µM) | 1 | 0.928 | 1 | 1 | 0.994 | 0.919 | 0.954 | 0.21 | 1 | 0.884 | 0.701 | 0.391 | 0.977 | 1 | 0.981 | 0.474 | 0.825 | 0.961 | 0.734 | 0.881
7 | Cc1cc2ncnn2cc1Nc1ncc2c(n1)n(C1CCOCC1)c(=O)n2C [AZD7648] + COc1cc([C@@H]2c3cc4c(cc3[C@@H](O[C@@H]3O[C@@H]5CO[C@@H](C)O[C@H]5[C@H](O)[C@H]3O)[C@H]3COC(=O)[C@H]23)OCO4)cc(OC)c1O [Etoposide] (first compound max 10 µM, 7x7, partner max 10 µM) | 0.867 | 0.976 | 1 | 0.98 | 0.883 | 0.822 | 0.924 | 0.558 | 0.979 | 0.524 | 0.666 | 0.783 | 0.572 | 0.967 | 0.725 | 0.603 | 0.729 | 0.827 | 0.489 | 0.854
8 | C[C@@H](Oc1cc(-c2cnn(C3CCNCC3)c2)cnc1N)c1c(Cl)ccc(F)c1Cl [Crizotinib] + Cn1cnc2c(F)c(Nc3ccc(Br)cc3Cl)c(C(=O)NOCCO)cc21 [Selumetinib] (first compound max 10 µM, 7x7, partner max 10 µM) | 0.783 | 0.858 | 0.596 | 0.889 | 0.95 | 0.78 | 0.742 | 0.916 | 0.973 | 0.899 | 0.456 | 0.576 | 0.933 | 0.755 | 0.964 | 0.673 | 0.365 | 0.883 | 0.572 | 1
9 | C[C@@H]1COCCN1c1cc(C2([S@](C)(=N)=O)CC2)nc(-c2ccnc3[nH]ccc23)n1 [AZD6738] + C1CC(C1)(C(=O)[O-])C(=O)[O-].N.N.[Pt+2] [Carboplatin] (first compound max 10 µM, 7x7, partner max 10 µM) | 0.89 | 0.802 | 0.767 | 0.946 | 0.673 | 0.448 | 0.659 | 0.32 | 0.996 | 0.566 | 0.58 | 0.45 | 0.459 | 0.922 | 0.664 | 0.254 | 0.458 | 0.544 | 0.423 | 0.923
10 | C[C@@H](Nc1cc(F)cc(F)c1)c1cc(C(=O)N(C)C)cc2c(=O)cc(N3CCOCC3)oc12 [AZD8186] + C1CN(CCC1(C(=O)N[C@@H](CCO)C2=CC=C(C=C2)Cl)N)C3=NC=NC4=C3C=CN4 [AZD5363] (first compound max 10 µM, 7x7, partner max 10 µM) | 0.429 | 0.294 | 1 | 0.45 | 0.557 | 0.494 | 0.709 | 0.154 | 0.485 | 0.656 | 0.394 | 0.265 | 0.655 | 0.521 | 0.47 | 0.401 | 0.144 | 0.425 | 0.363 | 0.226
11 | CN(CCO)CC[C@H](CSc1ccccc1)Nc1ccc(S(=O)(=O)NC(=O)c2ccc(N3CCC([C@@H](O)c4ccccc4-c4ccc(Cl)cc4)CC3)cc2)cc1S(=O)(=O)C(F)(F)F [AZD4320] + CC(=O)O[C@H]1C(=O)[C@@]2(C)[C@H]([C@H](OC(=O)c3ccccc3)[C@]3(O)C[C@H](OC(=O)[C@H](O)[C@@H](NC(=O)c4ccccc4)c4ccccc4)C(C)=C1C3(C)C)[C@]1(OC(C)=O)CO[C@@H]1C[C@@H]2O [Paclitaxel] (first compound max 1 µM, 7x7, partner max 3 µM) | 1 | 1 | 1 | 0.985 | 1 | 1 | 1 | 0.623 | 1 | 0.942 | 0.941 | 0.881 | 0.99 | 1 | 1 | 0.716 | 0.93 | 0.968 | 1 | 0.991
